Source: PubChem BioAssay (NCI)
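Values below derive from 48-hour exposures of cells grown in 96-well plates, with endpoints linearly interpolated between the two concentrations bracketing the appropriate inhibition level. GI50 marks 50% less growth. TGI is the concentration that stops growth completely.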

Columns and labels:
Experiment in all cases: NCI anticancer screen, dose series, 48 h
[1] = tested on: CAKI-1 renal
[2] = tested on: CCRF-CEM leukemia
[3] = tested on: DLD-1 colon
[4] = tested on: HOP-62 NSCLC
[5] = tested on: KM20L2 colon
[6] = tested on: M19-MEL melanoma
[7] = tested on: OVCAR-8 ovarian
[8] = tested on: SK-MEL-28 melanoma
[9] = tested on: UACC-257 melanoma
[10] = tested on: XF 498 CNS
[11] = tested on: HS 578T breast
[12] = tested on: RPMI-8226 leukemia

| Compound | TGI [1] [µM] | TGI [2] [µM] | TGI [3] [µM] | TGI [4] [µM] | TGI [5] [µM] | TGI [6] [µM] | TGI [7] [µM] | TGI [8] [µM] | TGI [9] [µM] | TGI [10] [µM] | GI50 [1] [µM] | GI50 [2] [µM] | GI50 [4] [µM] | GI50 [11] [µM] | TGI [11] [µM] | GI50 [7] [µM] | GI50 [12] [µM] | TGI [12] [µM] | GI50 [8] [µM] | GI50 [9] [µM] |
| --- | --- | --- | --- | --- | --- | --- | --- | --- | --- | --- | --- | --- | --- | --- | --- | --- | --- | --- | --- | --- |
| Cc1cc(=O)c2c(O)cc3c(c2o1)CC=C(COC1OC(COC2OC(CO)C(O)C(O)C2O)C(O)C(O)C1O)CO3 (stereo unspecified) | > 100 | > 100 | > 100 | > 100 | > 100 | > 100 | > 100 | > 100 | > 100 | > 100 | – | – | – | – | – | – | – | – | – | – |
| CN1CCc2nc3sc(C(N)=O)c(N)c3c(-c3cccs3)c2C1 | > 100 | > 100 | – | > 100 | – | – | > 100 | 9.59 | > 100 | – | 2.82 | 3.77 | 3.27 | 3.07 | 21.7 | 2.7 | 4.41 | > 100 | 2.91 | 4 |
| COc1ccc(Nc2ccnc(N3CCN(c4ccnc5cc(Cl)ccc45)CC3)n2)cc1 | 3.92 | > 34.2 | – | > 29 | – | – | > 21.7 | 4.89 | 2.84 | – | 0.576 | 1.74 | 1.27 | 1.4 | 9.06 | 1.68 | 1.04 | 3.88 | 1.21 | 1.25 |
| C=CCc1cc(Nc2c3ccc(Cl)cc3nc3ccc(OC)cc23)cc(CN(CC)CC)c1O | 11.1 | 4.26 | – | 13.5 | – | – | – | 18.1 | 9.27 | – | 2.4 | 0.8 | 2.92 | 3.04 | 14.3 | 1.44 | 0.348 | 2.38 | 3.37 | 2.21 |
| CCc1c(C)nc2sc3c(N)ncnc3c2c1C | > 25 | > 25 | – | > 25 | – | – | > 25 | > 25 | > 25 | – | > 19.6 | > 25 | > 25 | > 25 | > 25 | > 25 | > 25 | > 25 | > 25 | > 25 |
| O=C(NCCNCCO)c1cccc2ccc(-c3ccccc3)nc12 | 14.1 | 27.1 | 19.5 | 22.8 | – | 15.7 | 19.5 | 22.1 | 14.2 | – | – | – | – | – | – | – | – | – | – | – |
| Cc1ccncc1C(N)=O | > 100 | > 100 | – | > 100 | – | – | > 100 | > 100 | > 100 | – | > 100 | > 100 | > 100 | > 100 | > 100 | > 100 | > 100 | > 100 | > 100 | > 100 |
| COC(=O)c1cc(-c2ccc(OC)c(OC)c2)[nH]c1N/N=C/c1c(Cl)cccc1Cl | 7.1 | > 100 | – | 10.1 | – | – | 8.67 | 71.2 | > 23.1 | – | 0.768 | 0.406 | 1.17 | 0.523 | 11 | 1.31 | 0.531 | > 100 | 0.97 | 0.723 |
| Oc1cccc2c1NCCC2 | 16.6 | > 100 | – | 42.5 | – | – | 22.3 | > 100 | 5.83 | – | 2.24 | 0.219 | 0.146 | 0.183 | > 100 | 0.129 | 0.12 | > 100 | 2.19 | 1.12 |
| CC1c2ccccc2CCN1c1ccc(CO)c(Cl)c1 (stereo unspecified) | 50.3 | > 100 | – | 25.3 | – | – | 52.6 | 63.7 | 0.191 | – | 3.46 | 30.9 | 1.67 | 21.9 | 70.7 | 5.77 | 1.94 | 47.5 | 17.1 | 0.0412 |
| c1ccc2c(c1)CCc1c-2n[nH]c1-c1[nH]nc2c1CCc1ccccc1-2 | > 100 | > 100 | > 100 | > 100 | > 100 | > 100 | > 100 | > 100 | > 100 | > 100 | – | – | – | – | – | – | – | – | – | – |
| COc1ccc2c(c1)C(=O)c1c-2c(OCCN(C)C)nc2ccccc12 | 4.14 | 10.4 | – | 12.7 | – | – | 11.9 | 15.4 | 10.9 | – | 1.47 | 0.825 | 2.29 | 3.57 | 12.2 | 2.54 | 2.85 | 13.9 | 4.53 | 3.06 |
| O=C1c2ccccc2N2OC3(N4CCCC4)CCCCC3C12c1ccccc1 (stereo unspecified) | – | 47.5 | 46.3 | > 100 | > 100 | 22 | 32.9 | 76.2 | 45.6 | 41.1 | – | – | – | – | – | – | – | > 100 | – | – |
| COC(=O)C(C(=O)C(=O)Nc1ccc([N+](=O)[O-])cc1)c1nc2ccc([N+](=O)[O-])cc2[nH]c1=O (stereo unspecified) | > 100 | > 100 | > 100 | > 100 | > 100 | > 100 | > 100 | > 100 | > 100 | – | – | – | – | – | – | – | – | – | – | – |
| Cc1cccc(NC(=O)/C(=N\N)C(c2cnc3ccc([N+](=O)[O-])cc3n2)[N+](=O)[O-])c1C (stereo unspecified) | > 100 | > 100 | > 100 | > 100 | > 100 | > 100 | > 100 | > 100 | > 100 | > 100 | – | – | – | – | – | – | – | – | – | – |
| FC(F)(F)c1cccc(-c2nn3ncccc3c2-c2ccnc(Nc3ccc4c(c3)OCCO4)n2)c1 | > 25 | > 25 | – | > 25 | – | – | > 25 | > 25 | > 25 | – | 7.66 | 0.511 | > 25 | 16.4 | > 25 | 10.6 | 7.88 | > 25 | > 25 | 9.5 |
